This is an account of results in paper PMC12042267, “Expanding the Family of Monosubstituted 15-Membered Pyridine-Based Macrocyclic Ligands for Mn(II) Complexation in the Context of MRI” (Inorganic Chemistry, 2025).

This series can be described thus: Stability constants of Mn(II) complexes by pH-potentiometry, pMn and species distribution. Type of series: physicochemical. The note with it: species distribution, [Mn(II)] = [L] = 1.5 mM. On the procedure: Metal stock solutions were prepared from the highest analytical grade chemicals, and their concentration was determined by complexometric titration with standardized Na2H2EDTA, using xylenol orange indicator in the presence of urotropine buffer (ZnCl2 and MnCl2); Eriochrome black T indicator in the presence of ammonium acetate buffer (CaCl2) or murexide indicator in ammonium solution (CuCl2). The concentration of the ligand stock solutions was determined by pH-potentiometric titrations (the difference between two consecutive inflection points of the ligand titration curve corresponds to two (L2) or one (L3) ligand equivalents). To determine the protonation constants of the ligand and stability constants of the metal complexes with selected divalent metal ions, pH-potentiometric titrations were carried out with 0.1 M NaOH at 2 mM ligand concentration, in the absence (for ligand protonation constants) or in the presence of one equivalent of metal ion (for stability constants). During the titration, the waiting time was 2 min between successive points (V0 = 5 mL). The temperature (25.0 ± 0.1 °C) was controlled by a circulating water bath. The ionic strength was set to I = 0.15 M NaCl. All titrations were performed under a nitrogen atmosphere to avoid the effect of CO2. Titrations were carried out in the pH range from 1.8 (L3) or 2.0 (L2) (after the addition of 1 M HCl solution to the starting ligand solution in the titration cell) to pH 11 (or until precipitation of the metal hydroxide). All pH-potentiometric titrations were performed using a 785 DMP Titrino titration workstation with a combined electrode (Metrohm). The p[H] (p[H] = −log[H+], concentration in molarity) was measured in each titration with a combined pH glass electrode (Metrohm) filled with 3 M KCl. The electrode was calibrated in hydrogen ion concentration by titration of HCl with KOH in 0.1 M electrolyte solution.[37] A plot of potential versus p[H] allows determination of the electrode standard potential (E°) and the slope factor (f).
The protonation constants of the ligand (log Ki^H) are defined as follows [drawing 1] where i = 1, 2, ··· and [Hi–1L] and [H^+] are the equilibrium concentrations of the ligand (i = 1), its protonated forms (i = 2, ···), and the hydrogen ion. The stability (KML) and the protonation (KMHiL) constants for the metal complexes are defined as follows [drawing 2] [drawing 3] For the calculations of the equilibrium constants, the HYPERQUAD program was used.[38] The number of fitted data pairs was between 190 and 240. The ionic product of water at 25 °C and 0.1 M ionic strength is pKw = 13.77.[39] Fixed values were used for pKw, ligand acidity constants, and total concentrations of metal, ligand, and acid. All values and errors (one standard deviation) reported are at least the average of two independent experiments.
To obtain further information about the impact of a given pendant arm, it is interesting to calculate pMn values (pMn = −log[Mn(II)]free at pH 7.4, cMn = clig= 10^–5 M) which provide a more direct comparison of MnL stabilities, independently of differences in protonation constants (Table 4). […] Nevertheless, the too large, 15-membered macrocyclic cavity combined with a lower number of pendant arms provide ca. 2 orders of magnitude lower stability for Mn(II) complexation as compared to the 12-membered pyclen derivatives (Table 4).

For the compound `O.[Mn+2].c1ccc(CN2CCOCCOCCNCc3cccc(n3)C2)nc1` [MnL2], the “pH above which full complex formation is achieved” value is over 6.

With `O.[Mn+2].c1cc2nc(c1)CN(Cc1nc3ccccc3[nH]1)CCOCCOCCNC2` [MnL3], the “pH above which full complex formation is achieved” value is over 6.
